This is an account of results in ChEMBL document CHEMBL4610060, “Orally bioavailable amine-linked macrocyclic inhibitors of factor XIa” (Bioorg Med Chem Lett, 2020).

Data set [1] can be described thus: Metabolic stability in human liver microsomes assessed as half life. It is filed as ADME, Microsome.
Data set [2] is described as follows: Oral bioavailability in Sprague-Dawley rat at 1.04 mg/kg measured upto 24 hrs by LC-MS/MS analysis. Particulars: in vivo. It counts as ADME, organism-based.
The nature of data set [3]: Volume of distribution at steady state in Sprague-Dawley rat at 0.52 mg/kg, iv or 1.04 mg/kg, po measured upto 24 hrs by LC-MS/MS analysis. It counts as ADME, organism-based. Particulars: in vivo, read-out: Vdss.
The subject of a further data set is Plasma. The data set is described as follows: Anticoagulant activity in human plasma assessed as EC1.5 of activated partial thromboplastin time by coagulometric analysis. It counts as functional.
Data set [4] is described as follows: Clearance in Sprague-Dawley rat at 0.52 mg/kg, iv or 1.04 mg/kg, po measured upto 24 hrs by LC-MS/MS analysis. It is filed as ADME, organism-based. Particulars: in vivo.
The nature of data set [5]: Permeability across basolateral to apical side in human Caco2 cells. It is filed as ADME, cell-based. Particulars: Caco-2, read-out: permeability.
Data set [6] in a line: AUC in Sprague-Dawley rat at 1.04 mg/kg, po measured upto 24 hrs by LC-MS/MS analysis. The arrangement: time < 24 hr, dose 1.04 mg/kg, route oral. Particulars: in vivo. It counts as ADME, organism-based.
Data set [7] can be described thus: Half life in Sprague-Dawley rat at 0.52 mg/kg, iv or 1.04 mg/kg, po measured upto 24 hrs by LC-MS/MS analysis. Particulars: in vivo. It is filed as ADME, organism-based.
For another data set, the target named is Coagulation factor XI (Homo sapiens, UniProt P03951). Kind of data set: Inhibition of recombinant human activated coagulation factor XI using pyro-Glu-Pro-Arg-pNA as substrate by spectrophotometry.
A short description of data set [8]: Permeability across apical to basolateral side in human Caco2 cells. Particulars: Caco-2, read-out: permeability. It is filed as ADME, cell-based.
Data set [9] is described as follows: Metabolic stability in rat liver microsomes assessed as half life. It is filed as ADME, Microsome.
The nature of data set [10]: Oral bioavailability in Sprague-Dawley rat at 1.06 mg/kg measured upto 24 hrs by LC-MS/MS analysis. Particulars: in vivo. It counts as ADME, organism-based.
The nature of data set [11]: Protein binding in rat assessed as unbound fraction. It is filed as ADME.
Data set [12] can be described thus: Clearance in Sprague-Dawley rat at 0.53 mg/kg, iv or 1.06 mg/kg, po measured upto 24 hrs by LC-MS/MS analysis. Particulars: in vivo. It is filed as ADME, organism-based.
The nature of data set [13]: Volume of distribution at steady state in Sprague-Dawley rat at 0.53 mg/kg, iv or 1.06 mg/kg, po measured upto 24 hrs by LC-MS/MS analysis. It counts as ADME, organism-based. Particulars: in vivo, read-out: Vdss.
Data set [14] is described as follows: Half life in Sprague-Dawley rat at 0.53 mg/kg, iv or 1.06 mg/kg, po measured upto 24 hrs by LC-MS/MS analysis. It counts as ADME, organism-based. Particulars: in vivo.
Data set [15] is described as follows: AUC in Sprague-Dawley rat at 1.06 mg/kg, po measured upto 24 hrs by LC-MS/MS analysis. It is filed as ADME, organism-based. The arrangement: time < 24 hr, dose 1.06 mg/kg, route oral. Particulars: in vivo.
The nature of data set [16]: Volume of distribution at steady state in Sprague-Dawley rat at 0.49 mg/kg, iv or 0.98 mg/kg, po measured upto 24 hrs by LC-MS/MS analysis. It is filed as ADME, organism-based. Particulars: in vivo, read-out: Vdss.
Data set [17] is described as follows: AUC in Sprague-Dawley rat at 0.98 mg/kg, po measured upto 24 hrs by LC-MS/MS analysis. It is filed as ADME, organism-based. The arrangement: time < 24 hr, dose 0.98 mg/kg, route oral. Particulars: in vivo.
The nature of data set [18]: Half life in Sprague-Dawley rat at 0.49 mg/kg, iv or 0.98 mg/kg, po measured upto 24 hrs by LC-MS/MS analysis. Particulars: in vivo. It counts as ADME, organism-based.
Data set [19] is described as follows: Oral bioavailability in Sprague-Dawley rat at 0.98 mg/kg measured upto 24 hrs by LC-MS/MS analysis. It is filed as ADME, organism-based. Particulars: in vivo.
Data set [20] can be described thus: Clearance in Sprague-Dawley rat at 0.49 mg/kg, iv or 0.98 mg/kg, po measured upto 24 hrs by LC-MS/MS analysis. It counts as ADME, organism-based. Particulars: in vivo.

Each structure is given as a SMILES string. A value given as a limit tells only on which side of the number the result lay.

Sequence of Coagulation factor XI (P03951 19-387 limits assumed): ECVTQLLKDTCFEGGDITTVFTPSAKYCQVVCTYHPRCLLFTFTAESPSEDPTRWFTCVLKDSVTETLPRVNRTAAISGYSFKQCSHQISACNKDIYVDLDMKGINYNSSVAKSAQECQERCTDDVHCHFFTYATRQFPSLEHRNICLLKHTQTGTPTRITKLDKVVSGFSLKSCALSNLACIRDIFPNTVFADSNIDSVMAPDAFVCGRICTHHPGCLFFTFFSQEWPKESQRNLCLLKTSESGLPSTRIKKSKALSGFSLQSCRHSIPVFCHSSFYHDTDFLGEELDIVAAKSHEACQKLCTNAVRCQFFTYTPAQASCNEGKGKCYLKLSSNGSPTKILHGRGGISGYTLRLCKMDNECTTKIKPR
Sequence of Coagulation factor XI (P03951 388-625 limits assumed): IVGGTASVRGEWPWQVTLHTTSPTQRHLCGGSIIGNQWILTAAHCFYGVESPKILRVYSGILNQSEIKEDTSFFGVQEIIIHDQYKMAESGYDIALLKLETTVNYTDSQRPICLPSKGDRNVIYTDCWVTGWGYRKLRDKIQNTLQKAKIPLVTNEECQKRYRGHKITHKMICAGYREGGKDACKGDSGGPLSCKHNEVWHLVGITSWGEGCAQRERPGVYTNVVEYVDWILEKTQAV

Consider `COC(=O)Nc1ccc2c(c1)N[C@@H](C(=O)OC)CCCC[C@H](NC(=O)/C=C/c1cc(Cl)ccc1-n1cnnn1)c1cc-2ccn1`, for which the half-life in [1] is 1.85 h; in [7], 1.2 h; in [9], 1.45 h. The bioavailability in [2] came out at 23%. Further, the Vd in data set [3] is 0.53 L/kg. Moreover, in the data set on Plasma, the EC1.5 was 3.4 µM. The same molecule had a clearance in data set [4] of 5.2 mL/min/kg. In addition, the Papp B→A in data set [5] amounted to 21.3 ×10⁻⁶ cm/s. Further, in data set [6], the AUC at 24 h was 0.889 µM·h. Moreover, the Ki at Coagulation factor XI came out at 3400 pM. For the same molecule, in data set [8], the Papp A→B was below 1.5 ×10⁻⁶ cm/s.
Take `COC(=O)Nc1ccc2c(c1)N[C@@H](C(=O)OC)CCCC[C@H](NC(=O)/C=C/c1cc(Cl)ccc1-n1cnnn1)c1nc-2c[nH]1`: the half-life was 0.167 h in data set [1], 0.8 h in [9] and 1.8 h in data set [14]. Also, the EC1.5 in the data set with Plasma came out at 0.55 µM. Further, the bioavailability in data set [10] turned out to be 8%. Also, the Papp B→A in [5] came to 10.3 ×10⁻⁶ cm/s. For the same molecule, the free fraction (fraction unbound) in data set [11] was below 0.002. The molecule further displayed a clearance in data set [12] of 3 mL/min/kg. Also, the Vd in data set [13] is 0.3 L/kg. Also, the Ki at Coagulation factor XI amounted to 460 pM. The Papp A→B in [8] was below 1.5 ×10⁻⁶ cm/s. This molecule also showed an AUC at 24 h in [15] of 0.487 µM·h.
Turning to `COC(=O)Nc1ccc2c(c1)N[C@@H](C(=O)O)CCCC[C@H](NC(=O)/C=C/c1cc(Cl)ccc1-n1cnnn1)c1nc-2c[nH]1`, the half-life was 1.17 h in data set [1], 1 h in [18] and 1.25 h in [9]. For the same molecule, the EC1.5 with Plasma was 0.87 µM. For the same molecule, the Papp B→A in data set [5] was below 1.5 ×10⁻⁶ cm/s. Besides, the fraction unbound in data set [11] is 0.014. In addition, the Vd in data set [16] was 0.33 L/kg. The AUC at 24 h in [17] turned out to be 0.014 µM·h. The Ki at Coagulation factor XI was found to be 670 pM. Further, the Papp A→B in data set [8] is below 1.5 ×10⁻⁶ cm/s. Further, the bioavailability in [19] worked out at 1%. This molecule gave a clearance in [20] of 7.7 mL/min/kg.
